Assays:
[1] = target: T1, TRPV1 receptor (Rattus norvegicus, UniProt O35433); experiment: Inhibition of the current induced by capsaicin on rat DRGs (whole-cell patch-clamp); type: cell-based; conditions: DRG neuron, inhibition of control capsaicin (1 microM) response, newborn rat DRG neurons; for inhibition at 0.001 µM: compound at 1 nM; for inhibition at 0.01 µM: compound at 10 nM
T1 construct: The neurons of the DRG naturally express the TRPV1 receptor; endogenous in cells; host or cells: primary culture of newborn rat dorsal root ganglion neurons
T1 sequence (O35433 whole entry): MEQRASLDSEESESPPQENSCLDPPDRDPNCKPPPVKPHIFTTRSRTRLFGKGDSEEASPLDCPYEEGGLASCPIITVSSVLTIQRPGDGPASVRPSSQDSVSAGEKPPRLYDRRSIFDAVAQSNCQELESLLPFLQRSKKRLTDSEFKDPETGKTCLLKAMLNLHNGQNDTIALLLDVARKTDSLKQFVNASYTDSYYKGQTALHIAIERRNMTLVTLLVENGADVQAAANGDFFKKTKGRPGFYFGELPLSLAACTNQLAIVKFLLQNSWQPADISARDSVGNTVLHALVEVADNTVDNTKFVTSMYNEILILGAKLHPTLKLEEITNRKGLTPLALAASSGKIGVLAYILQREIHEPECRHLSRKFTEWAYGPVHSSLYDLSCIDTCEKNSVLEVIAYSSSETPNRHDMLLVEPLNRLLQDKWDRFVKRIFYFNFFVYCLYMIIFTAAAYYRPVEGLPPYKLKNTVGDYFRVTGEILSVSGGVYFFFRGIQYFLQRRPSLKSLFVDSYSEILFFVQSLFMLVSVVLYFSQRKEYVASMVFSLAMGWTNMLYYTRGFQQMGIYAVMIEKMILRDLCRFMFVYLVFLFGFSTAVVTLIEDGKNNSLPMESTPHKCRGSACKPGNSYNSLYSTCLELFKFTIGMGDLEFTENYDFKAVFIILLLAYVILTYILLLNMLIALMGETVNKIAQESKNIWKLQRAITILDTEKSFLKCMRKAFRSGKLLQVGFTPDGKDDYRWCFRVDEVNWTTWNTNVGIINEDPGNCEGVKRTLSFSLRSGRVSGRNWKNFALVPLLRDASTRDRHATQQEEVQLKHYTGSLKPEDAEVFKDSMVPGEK
Experimental: Test for Inhibition of the Current Induced by Capsaicin on Rat DRGs
• Primary culture of rat dorsal root ganglion (DRG) cells:
The neurons of the DRG naturally express the TRPV1 receptor.
Newborn rat DRG primary cultures are prepared from one-day-old rat pups. Briefly, after dissection, the ganglia are trypsinized and the cells are mechanically dissociated by controlled trituration. The cells are resuspended in an Eagle's basal culture medium containing 10% of foetal calf serum, 25 mM KCl, 2 mM glutamine, 100 μg/ml gentamycin and 50 ng/ml of NGF, and then deposited onto laminin-coated glass cover slips (0.25×10^6 cells per cover slip) which are then placed in 12-well Corning dishes. The cells are incubated at 37° C. in a humidified atmosphere containing 5% CO2 and 95% air. Cytosine β-D-arabinoside (1 μM) is added 48 h after placing in culture, in order to prevent the development of non-neuronal cells. The cover slips are transferred into the experimental chambers for the patch-clamp studies after 7-10 days of culture. • Electrophysiology:
The measuring chambers (volume 800 μl) containing the cell preparation are placed on the platform of an inverted microscope (Olympus IMT2) equipped with Hoffman optics (Modulation Contrast, New York) and observed at the magnification of ×400. The chambers are continually perfused by gravity (2.5 ml/min) by means of a solution distributing device with 8 inlets, and the sole outlet of which, consisting of a polyethylene tube (500 μm aperture), is placed at least 3 mm from the cell studied. The “whole cell” configuration of the patch-clamp technique was used. The borosilicate glass pipettes (resistance 5-10 MOhms) are moved close to the cell by means of a 3D piezoelectric micromanipulator (Burleigh, PC1000). The overall currents (membrane potential fixed at −60 mV) are recorded with an Axopatch 1D amplifier (Axon Instruments, Foster city, Calif.), connected to a PC control by Pclamp8 software (Axon Instrument). The current traces are recorded on paper and simultaneously digitized (sampling frequency […]) and acquired on the hard drive of the PC.
The application of a micromolar solution of capsaicin causes, on the DRG cells (voltage fixed at −70 mV), an inward cationic current. In order to minimize the desensitization of the receptors, a minimum period of one minute is observed between two applications of capsaicin. After a controlled period (stabilization of the capsaicin response alone), the compounds to be tested are applied alone at a given concentration (concentration of 10 nM or of […]) for a period of 4 to 5 minutes, during which several capsaicin+compound tests are carried out (obtaining of maximum inhibition). The results are expressed as % inhibition of the control capsaicin response.

[2] = target: T2, TRPV1 receptors (Mus musculus, UniProt Q704Y3); experiment: Mouse corneal irritation test (capsaicin-induced eye rubbing); type: in vivo; conditions: compound 500 μM, 2 μl local application to cornea 10 min before capsaicin 160 μM; eye rubs counted over 2 min
T2 construct: from tissue; host or cells: cornea of the living mouse (in vivo)
T2 sequence (Q704Y3 whole entry): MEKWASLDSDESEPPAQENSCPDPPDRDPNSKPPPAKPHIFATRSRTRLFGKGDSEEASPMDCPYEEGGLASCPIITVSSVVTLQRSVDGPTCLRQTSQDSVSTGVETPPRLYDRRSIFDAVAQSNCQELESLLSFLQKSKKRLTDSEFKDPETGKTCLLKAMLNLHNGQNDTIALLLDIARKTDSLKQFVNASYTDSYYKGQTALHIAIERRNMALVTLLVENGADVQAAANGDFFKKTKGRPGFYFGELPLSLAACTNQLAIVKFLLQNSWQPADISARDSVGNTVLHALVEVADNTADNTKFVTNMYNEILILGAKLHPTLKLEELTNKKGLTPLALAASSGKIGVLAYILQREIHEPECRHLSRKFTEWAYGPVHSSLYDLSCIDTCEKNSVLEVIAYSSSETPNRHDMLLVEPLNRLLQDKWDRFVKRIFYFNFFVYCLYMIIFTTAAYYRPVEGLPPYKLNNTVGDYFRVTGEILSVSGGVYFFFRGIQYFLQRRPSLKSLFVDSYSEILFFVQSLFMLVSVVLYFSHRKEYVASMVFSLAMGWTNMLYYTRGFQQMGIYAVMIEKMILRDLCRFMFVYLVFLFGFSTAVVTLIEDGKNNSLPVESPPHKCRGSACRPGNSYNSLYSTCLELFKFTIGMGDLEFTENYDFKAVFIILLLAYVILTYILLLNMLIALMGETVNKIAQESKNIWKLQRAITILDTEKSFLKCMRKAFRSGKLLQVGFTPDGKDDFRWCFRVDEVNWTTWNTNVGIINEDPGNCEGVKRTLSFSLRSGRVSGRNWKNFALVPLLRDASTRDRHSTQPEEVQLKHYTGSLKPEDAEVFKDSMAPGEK
Experimental: Mouse Corneal Irritation Test
The irritant nature of capsaicin can be readily assessed at the level of the cornea since this organ is one of the most innervated by C fibres. In this context, according to preliminary experiments, the application of a very small amount of capsaicin (2 μl at a concentration of 160 μM) to the surface of the cornea of an animal results in a certain number of stereotyped behaviors associated with the irritation and that can be readily listed. Among these are: blinking of the eye, rubbing of the instilled eye with the ipsilateral forelimb, rubbing of the face with both forelimbs, scratching of the ipsilateral face with the hind limb. […]
In practice, the product to be tested, prepared at 25 mM in DMSO and diluted for its final use in physiological serum with 10% Tween 80, at the highest concentration of 500 μM, is administered by local application to the surface of the cornea in a volume of 2 μl, 10 minutes before the application of the capsaicin. […] Over the course of a period of observation of 2 minutes following the instillation, the number of times the instilled eye is rubbed by the ipsilateral forelimb is counted for each animal. For each given group, the percentage protection is calculated as follows: P=100−((average number of scratches of the group treated with the compound/average number of scratches of the group treated with the solvent)×100) […]

melting point [°C]	SMILES	also measured
199 to 201	O=C(Nc1ccc(N2CCCC2)nc1)c1cc2cc(F)ccc2n1Cc1cccc(F)c1 [Compound 2, N-[6-(pyrrolidin-1-yl)pyridin-3-yl]-5-fluoro-1-(3-fluorobenzyl)-1H-indole-2-carboxamide]	inhibition at 0.001 µM [1]: 46%; % P 500 μM (percentage protection) [2]: 72%
–	O=C(Nc1ccc(N2CCC2)nc1)c1cc2cc(F)ccc2n1Cc1cccc(F)c1 [Compound 4, N-[6-(azetidin-1-yl)pyridin-3-yl]-5-fluoro-1-(3-fluorobenzyl)-1H-indole-2-carboxamide]	inhibition at 0.001 µM [1]: 89%
–	O=C(Nc1ccc(N2CCC(O)C2)nc1)c1cc2cc(F)ccc2n1Cc1cccc(F)c1 (stereo not drawn) [Compound 7, N-[6-(3-hydroxypyrrolidin-1-yl)pyridin-3-yl]-5-fluoro-1-(3-fluorobenzyl)-1H-indole-2-carboxamide]	inhibition at 0.01 µM [1]: 85%
220 to 222	O=C(Nc1cnc(N2CCCC2)nc1)c1cc2cc(F)ccc2n1Cc1cccc(F)c1 [Compound 21, N-[2-(pyrrolidin-1-yl)pyrimidin-5-yl]-5-fluoro-1-(3-fluorobenzyl)-1H-indole-2-carboxamide]	inhibition at 0.01 µM [1]: 79%
212 to 214	CC(C)(C)c1ccc2c(c1)cc(C(=O)Nc1ccc(N3CCC3)nc1)n2Cc1cccc(F)c1 [Compound 49, N-[6-(azetidin-1-yl)pyridin-3-yl]-5-tert-butyl-1-(3-fluorobenzyl)-1H-indole-2-carboxamide]	–
196 to 198	CCc1ccc2cc(C(=O)Nc3ccc(N4CCC4)nc3)n(Cc3cccc(F)c3)c2c1 [Compound 50, N-[6-(azetidin-1-yl)pyridin-3-yl]-6-ethyl-1-(3-fluorobenzyl)-1H-indole-2-carboxamide]	–
184 to 186	CC(C)c1ccc2cc(C(=O)Nc3ccc(N4CCC4)nc3)n(Cc3cccc(F)c3)c2c1 [Compound 51, N-[6-(azetidin-1-yl)pyridin-3-yl]-6-isopropyl-1-(3-fluorobenzyl)-1H-indole-2-carboxamide]	–
220 to 222	O=C(Nc1ccc(N2CCC2)nc1)c1cc2ccc(C(F)(F)F)cc2n1Cc1cccc(F)c1 [Compound 52, N-[6-(azetidin-1-yl)pyridin-3-yl]-6-trifluoromethyl-1-(3-fluorobenzyl)-1H-indole-2-carboxamide]	–
170 to 171	O=C(Nc1cnc(N2CCCC2)cc1C(F)(F)F)c1cc2cc(F)ccc2n1Cc1cccc(F)c1 [Compound 53, N-[6-(pyrrolidin-1-yl)-4-(trifluoromethyl)pyridin-3-yl]-5-fluoro-1-(3-fluorobenzyl)-1H-indole-2-carboxamide]	–
